From patent US20230271965A1, “BICYCLIC HETEROARENES AND METHODS OF THEIR USE” (Kineta, Inc., priority 2020, published 2023)

Assays:
[1] = target: T1, full-length human PIKFYVE (GST-PIKFYVE) (Homo sapiens, UniProt Q9Y2I7, L932S/Q1183K/Q995L/S1033A/S696N/T998S); experiment: PIKfyve biochemical assay (ADP-Glo Kinase assay, Carna Biosciences); conditions: ADP-Glo, full-length human PIKFYVE; read-out: hPIKfyve IC50
T1 construct: A full-length human PIKFYVE [1-2098 (end) amino acids; purchased Carna Biosciences; host or cells: baculovirus expression system
T1 sequence (Q9Y2I7 whole entry S696N/L932S/Q995L/T998S/S1033A/Q1183K): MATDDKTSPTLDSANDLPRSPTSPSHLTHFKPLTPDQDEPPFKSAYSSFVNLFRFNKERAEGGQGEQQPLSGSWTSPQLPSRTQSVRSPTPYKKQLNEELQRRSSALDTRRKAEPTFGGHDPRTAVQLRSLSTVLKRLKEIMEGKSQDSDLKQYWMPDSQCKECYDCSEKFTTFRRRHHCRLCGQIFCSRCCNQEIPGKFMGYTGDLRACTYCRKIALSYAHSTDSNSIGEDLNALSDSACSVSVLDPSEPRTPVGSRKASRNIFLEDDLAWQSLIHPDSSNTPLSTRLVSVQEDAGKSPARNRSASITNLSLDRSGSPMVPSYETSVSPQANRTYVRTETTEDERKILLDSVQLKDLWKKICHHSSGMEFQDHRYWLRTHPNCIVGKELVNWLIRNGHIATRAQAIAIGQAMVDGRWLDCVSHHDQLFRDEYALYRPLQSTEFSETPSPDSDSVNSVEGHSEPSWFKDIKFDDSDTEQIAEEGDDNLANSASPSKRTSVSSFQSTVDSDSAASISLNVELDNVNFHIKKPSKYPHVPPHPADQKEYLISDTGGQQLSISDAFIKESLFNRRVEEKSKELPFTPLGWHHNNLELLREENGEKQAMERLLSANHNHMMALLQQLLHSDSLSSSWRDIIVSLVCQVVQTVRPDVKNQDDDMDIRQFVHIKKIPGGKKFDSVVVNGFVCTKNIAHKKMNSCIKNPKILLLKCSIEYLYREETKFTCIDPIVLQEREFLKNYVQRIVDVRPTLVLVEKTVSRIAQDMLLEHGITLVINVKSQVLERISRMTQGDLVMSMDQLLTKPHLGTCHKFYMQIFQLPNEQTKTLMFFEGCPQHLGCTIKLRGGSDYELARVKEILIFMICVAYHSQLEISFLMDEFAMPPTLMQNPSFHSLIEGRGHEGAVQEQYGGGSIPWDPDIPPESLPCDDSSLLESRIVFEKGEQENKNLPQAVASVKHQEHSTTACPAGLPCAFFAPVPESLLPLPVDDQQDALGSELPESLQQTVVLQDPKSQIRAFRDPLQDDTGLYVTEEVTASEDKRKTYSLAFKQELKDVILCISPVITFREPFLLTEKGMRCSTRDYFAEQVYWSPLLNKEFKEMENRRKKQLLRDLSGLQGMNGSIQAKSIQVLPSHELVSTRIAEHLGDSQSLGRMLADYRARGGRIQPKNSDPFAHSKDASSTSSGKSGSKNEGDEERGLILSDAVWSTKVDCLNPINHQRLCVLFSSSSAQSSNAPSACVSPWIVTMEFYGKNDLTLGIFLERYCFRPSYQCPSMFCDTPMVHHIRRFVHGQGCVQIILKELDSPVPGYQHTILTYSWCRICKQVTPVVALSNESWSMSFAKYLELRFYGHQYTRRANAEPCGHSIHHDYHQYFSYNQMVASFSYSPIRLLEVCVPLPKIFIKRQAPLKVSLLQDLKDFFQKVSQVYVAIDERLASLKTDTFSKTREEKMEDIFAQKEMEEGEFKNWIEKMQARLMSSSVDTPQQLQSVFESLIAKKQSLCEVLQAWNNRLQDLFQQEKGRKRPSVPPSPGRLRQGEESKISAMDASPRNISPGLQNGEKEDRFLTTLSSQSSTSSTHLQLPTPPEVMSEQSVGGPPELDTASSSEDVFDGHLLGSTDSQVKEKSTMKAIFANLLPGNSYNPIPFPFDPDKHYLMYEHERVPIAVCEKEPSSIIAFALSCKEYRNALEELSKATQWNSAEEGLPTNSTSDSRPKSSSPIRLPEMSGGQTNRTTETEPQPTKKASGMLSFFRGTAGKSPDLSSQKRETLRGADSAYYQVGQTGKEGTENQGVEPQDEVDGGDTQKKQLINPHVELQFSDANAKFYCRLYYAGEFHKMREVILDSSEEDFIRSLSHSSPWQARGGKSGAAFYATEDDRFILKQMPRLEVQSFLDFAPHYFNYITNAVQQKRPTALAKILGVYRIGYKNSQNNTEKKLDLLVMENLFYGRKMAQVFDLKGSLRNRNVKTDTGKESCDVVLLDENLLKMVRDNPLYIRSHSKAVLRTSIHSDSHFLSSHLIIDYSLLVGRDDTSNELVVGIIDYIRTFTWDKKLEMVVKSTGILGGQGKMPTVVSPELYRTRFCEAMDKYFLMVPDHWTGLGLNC
Protocol: PIKfyve Biochemical Assay. The biochemical PIKFyve inhibition assays were run by Carna Biosciences according to proprietary methodology based on the Promega ADP-Glo™ Kinase assay. […] GST-PIKFYVE was purified by using glutathione sepharose chromatography and used in an ADP-Glo™ Kinase assay (Promega). Reactions were set up by adding the test compound solution, substrate solution, ATP solution and kinase solution, each at 4×final concentrations. Reactions were prepared with assay buffer (50 mM MOPS, 1 mM DTT, pH7.2), mixed, and incubated in black 384 well polystyrene plates for 1 hour at room temperature. ADP-Glo™ reagent was then added for 40 minutes, followed by kinase detection reagent for an additional 40 minutes. The kinase activity was evaluated by detecting relative light units on a luminescence plate reader. Samples were run in duplicate from 10 μM to 3 nM. […] IC50 values were calculated from concentration vs % inhibition curves by fitting to a four-parameter logistic curve.
The biochemical PIKFyve inhibition assays were run by Carna Biosciences according to proprietary methodology based on the Promega ADP-Glo™ Kinase assay. […] GST-PIKFYVE was purified by using glutathione sepharose chromatography and used in an ADP-Glo™ Kinase assay (Promega).
Reactions were set up by adding the test compound solution, substrate solution, ATP solution and kinase solution, each at 4×final concentrations. Reactions were prepared with assay buffer (50 mM MOPS, 1 mM DTT, pH7.2), mixed, and incubated in black 384 well polystyrene plates for 1 hour at room temperature. ADP-Glo™ reagent was then added for 40 minutes, followed by kinase detection reagent for an additional 40 minutes. The kinase activity was evaluated by detecting relative light units on a luminescence plate reader. Samples were run in duplicate from 10 uM to 3 nM. […] IC50 values were calculated from concentration vs % inhibition curves by fitting to a four-parameter logistic curve.

[2] = target: T2, PIKfyve (PIKFYVE-NanoLuc fusion in HEK293 cells) (Homo sapiens, UniProt Q9Y2I7); experiment: NanoBRET TE Intracellular Kinase Assay, K-8 (Promega) cell-based assay; conditions: 2 hours, read-out: hPIKfyve BRET IC50
T2 construct: containing a full-length PIKfyve according to manufacturer's specifications; host or cells: HEK293
T2 sequence (Q9Y2I7 whole entry, the tested form may be a part): as the sequence (Q9Y2I7 whole entry S696N/L932S/Q995L/T998S/S1033A/Q1183K) above, with N696S, S932L, L995Q, S998T, A1033S, K1183Q counted along it
Protocol: NanoBRET™ TE Intracellular Kinase Assay, K-8 (Promega) Cell-Based Assay. Intracellular inhibition of PIKfyve was assayed using Promega's NanoBRET™ TE Intracellular Kinase Assay, K-8 according to manufacturer's instructions. A dilution series of test compounds was added for 2 hours to HEK293 cells transfected for a minimum of 20 hours with PIKFYVE-NanoLuc® Fusion Vector (Promega) containing a full-length PIKfyve according to manufacturer's specifications in a 96-well plate. Kinase activity was detected by addition of a NanoBRET™ tracer reagent, which was a proprietary PIKfyve inhibitor appended to a fluorescent probe (BRET, bioluminescence resonance energy transfer). Test compounds were tested at concentrations of 10, 3, 1, 0.3, 0.1, 0.03, 0.01, 0.003 μM. BRET signals were measured by a GloMax® Discover Multimode Microplate Reader (Promega) using 0.3 sec/well integration time, 450BP donor filter and 600LP acceptor filters. Active test compounds that bound PIKfyve and displaced the tracer reduced BRET signal. IC50 values were then calculated by fitting the data to the normalized BRET ratio.

[3] = test system: PIKFYVE TDP-43 yeast strain; experiment: Propidium iodide viability assay, PIKFYVE TDP-43 yeast strain; assay type: cell-based; conditions: concentrations ranging from 0.5 mM to less than 100 nM
[4] = test system: FAB1 TDP-43 yeast strain; experiment: Propidium iodide viability assay, control FAB1 TDP-43 yeast strain; assay type: cell-based; conditions: across a range of compound concentrations (only 0.23 μM is shown), FIG. 5
Protocol: Generation of TDP-43 yeast model expressing human PIKfyve. Human PIKFYVE (“entry clone”) was cloned into pAG416GPDccdB (“destination vector”) according to standard Gateway cloning protocols (Invitrogen, Life Technologies). The resulting pAG416GPD-PIKFYVE plasmids were amplified in E. coli and plasmid identity confirmed by restriction digest and Sanger sequencing. […]
Transformed yeast were plated on solid agar plates with complete synthetic media lacking uracil (CSM-ura) and containing 2% glucose. […] Multiple independent isolates were further evaluated for cytotoxicity and TDP-43 expression levels.
Viability Assay. A control yeast strain with the wild-type yeast FAB1 gene and TDP-43 (“FAB1 TDP-43”, carries empty pAG416 plasmid), and the “PIKFYVE TDP-43” yeast strain, were assessed for toxicity using a propidium iodide viability assay. […] Wells containing DMSO alone were also evaluated as controls for compound effects. […]
Upon the completion of incubation, cultures were assayed for viability using propidium iodide (PI) to stain for dead/dying cells. […] A benchtop flow cytometer (Miltenyi MACSquant) was then used to assess red fluorescence ([…]), forward scatter, and side scatter (with following settings: gentle mix, high flow rate, fast measurement, 10,000 events). […]

[5] = test system: PIKFYVE TDP-43 yeast strain; experiment: Propidium iodide viability assay, PIKFYVE TDP-43 yeast strain; assay type: cell-based; conditions: 0.23 μM, FIG. 6
Description: Generation of TDP-43 yeast model expressing human PIKfyve. Human PIKFYVE (“entry clone”) was cloned into pAG416GPDccdB (“destination vector”) according to standard Gateway cloning protocols (Invitrogen, Life Technologies). The resulting pAG416GPD-PIKFYVE plasmids were amplified in E. coli and plasmid identity confirmed by restriction digest and Sanger sequencing. Lithium acetate/polyethylene glycol-based transformation was used to introduce the above PIKFYVE plasmid into a BY4741 yeast strain auxotrophic for the ura3 gene and deleted for two transcription factors that regulate the xenobiotic efflux pumps, a major efflux pump, and FAB1, the yeast ortholog of PIKFYVE (MATa, snq2::KILeu2; pdr3::KIura3; pdr1::NATMX; fab1::G418^R, his3; leu2; ura3; met15; LYS2+) (FIG. 2).
Transformed yeast were plated on solid agar plates with complete synthetic media lacking uracil (CSM-ura) and containing 2% glucose. Individual colonies harboring the control or PIKFYVE TDP-43 plasmids were recovered. A plasmid containing wild-type TDP-43 under the transcriptional control of the GAL1 promoter and containing the hygromycin-resistance gene as a selectable marker was transformed into the fab1::G418^R pAG416GPD-PIKFYVE yeast strain (FIG. 1). Transformed yeast were plated on CSM-ura containing 2% glucose and […] after overnight recovery in media lacking antibiotic. Multiple independent isolates were further evaluated for cytotoxicity and TDP-43 expression levels.
Viability Assay. A control yeast strain with the wild-type yeast FAB1 gene and TDP-43 (“FAB1 TDP-43”, carries empty pAG416 plasmid), and the “PIKFYVE TDP-43” yeast strain, were assessed for toxicity using a propidium iodide viability assay. Both yeast strains were transferred from solid CSM-ura/2% glucose agar plates into 3 mL of liquid CSM-ura/2% glucose media for 6-8 hours at 30° C. with aeration. Yeast cultures were then diluted to an optical density at 600 nm wavelength (OD600) of 0.005 in 3 mL of CSM-ura/2% raffinose and grown overnight at 30° C. with aeration to an OD600 of 0.3-0.8. Log-phase overnight cultures were diluted to OD600 of 0.005 in CSM-ura containing either 2% raffinose or galactose and 150 μL dispensed into each well of a flat bottom 96-well plates. Compounds formulated in 100% dimethyl sulfoxide (DMSO) were serially diluted in DMSO and 1.5 μL diluted compound transferred to the 96-well plates using a multichannel pipet. Wells containing DMSO alone were also evaluated as controls for compound effects. Tested concentrations ranged from 15 μM to […]. Cultures were immediately mixed to ensure compound distribution and covered plates incubated at 30° C. for 24 hours in a stationary, humified incubator.
Upon the completion of incubation, cultures were assayed for viability using propidium iodide (PI) to stain for dead/dying cells. A working solution of PI was made where, for each plate, 1 μL of 10 mM PI was added to 10 mL of CSM-ura (raffinose or galactose). The final PI solution (50 μL/well) was dispensed into each well of a new round bottom 96-well plate. The overnight 96-well assay plate was then mixed with a multichannel pipet and 50 μL transferred to the PI-containing plate. This plate was then incubated for 30 minutes at 30° C. in the dark. A benchtop flow cytometer (Miltenyi MACSquant) was then used to assess red fluorescence ([…]), forward scatter, and side scatter (with following settings: gentle mix, high flow rate, fast measurement, 10,000 events). Intensity histograms were then gated for “PI-positive” or “PI-negative” using the raffinose and galactose cultures treated with DMSO as controls. The DMSO controls for raffinose or galactose-containing cultures were used to determine the window of increased cell death and this difference set to 100. All compounds were similarly gated and then compared to this maximal window to establish the percent reduction in PI-positive cells.

| Compound | IC50 [1] [nM] | IC50 [2] [nM] | also measured |
| --- | --- | --- | --- |
| CN1CCC(COc2nc(N3CCOCC3)nc3c2CCN3c2cccnc2)CC1 [Compound 111] | 100 to 1000 | 1000 to 10000 | – |
| c1ccc(N2CCc3c(-c4ccncc4)nc(N4CCOCC4)nc32)cc1 [Compound 41, 4-(7-phenyl-4-(pyridin-4-yl)-6,7-dihydro-5H-pyrrolo[2,3-d]pyrimidin-2-yl)morpholine] | < 10 | 10 to 100 | – |
| c1cncc(N2CCc3c(OCCC4CCCO4)nc(N4CCOCC4)nc32)c1 (stereo not drawn) [Compound 10] | < 10 | 100 to 1000 | – |
| OCC(O)COc1nc(N2CCOCC2)nc2c1CCN2c1ccccc1 (stereo not drawn) [Compound 25, 3-((2-morpholino-7-phenyl-6,7-dihydro-5H-pyrrolo[2,3-d]pyrimidin-4-yl)oxy)propane-1,2-diol] | – | 100 to 1000 | – |
| c1ccc(N2CCc3c(OCc4cccnn4)nc(N4CCOCC4)nc32)cc1 [Compound 5] | – | 100 to 1000 | – |
| c1ccc(N2CCc3c(Oc4cccnc4)nc(N4CCOCC4)nc32)cc1 [Compound 22, 4-(7-phenyl-4-(pyridin-3-yloxy)-6,7-dihydro-5H-pyrrolo[2,3-d]pyrimidin-2-yl)morpholine] | < 10 | 100 to 1000 | – |
| N#Cc1ccc(N2CCc3c(OCc4cccnc4)nc(N4CCOCC4)nc32)cc1 [Compound 21, 4-(2-morpholino-4-(pyridin-3-ylmethoxy)-5H-pyrrolo[2,3-d]pyrimidin-7(6H)-yl)benzonitrile] | – | 100 to 1000 | – |
| c1cncc(Oc2nc(N3CCOCC3)nc3c2CCN3c2cccnc2)c1 [Compound 24, 4-(7-(pyridin-3-yl)-4-(pyridin-3-yloxy)-6,7-dihydro-5H-pyrrolo[2,3-d]pyrimidin-2-yl)morpholine] | 10 to 100 | 1000 to 10000 | – |
| COc1nc(N2CCOCC2)nc2c1CCN2c1ccccc1 [Compound 16, 4-(4-methoxy-7-phenyl-6,7-dihydro-5H-pyrrolo[2,3-d]pyrimidin-2-yl)morpholine] | – | 100 to 1000 | – |
| Cc1cccc(/C=N/Nc2cc(N3CCOCC3)n3nc(-c4ccncc4)cc3n2)c1 [APY0201] | – | – | viability in PIKFYVE TDP-43 model [3]: increased viability; increase in viable cells in FAB1 TDP-43 [4]: no increase in viable cells; population of propidium iodide-positive dead cells in PIKFYVE TDP-43 [5]: reduced the population of propidium iodide-positive dead cells |
| c1ccc(N2CCc3c(OCc4cccnc4)nc(N4CCOCC4)nc32)cc1 [Compound 3] | – | 10 to 100 | – |
